Experimental data reported in a melting point compilation (Tetko et al.; mined from patent text by program, amines drawn as free bases though some values may be those of a salt).

| SMILES | melting point [°C] |
| --- | --- |
| Cn1nnnc1-c1cn(C)c2cc(C#N)ccc2c1=O | 301 to 303 |
| CC1CCCCC1C(=O)Nc1ccc(-c2cnc(-c3ccc(NC(=O)C4CCCCC4)cc3)[nH]2)cc1 (stereo not given) | 221 to 223 |
| CCCCCCCCSc1ccc(-c2ncc(CCCCC)cn2)cc1 | 43 |
| Cc1cc2c(-c3ccccc3C)c(NC(=O)Nc3ccc(F)cc3F)c(=O)n(C)c2cc1C | 225 to 226 |
| CCOC(=O)CC(=O)Nc1ccc(N)c([N+](=O)[O-])c1 | 133 to 136 |
| O=C(Nc1cnc2cc[nH]c2c1)c1cc2cc(F)ccc2n1Cc1cccc(F)c1 | 277 to 278 |
| S=C=Nc1ccccc1-c1ccc(Cl)cc1 | 63 |
| CCCCCCCCCCCCCCOc1cc(OCCCOc2ccc(O)cc2)cc(C(=O)O)c1 | 91 to 93 |
| CC(Cc1ccc(OCCO)cc1)NCC(O)c1ccccc1F (stereo not given) | 80 to 95 |
| Cn1c(C(F)(F)F)cc(=O)n(-c2cc(Oc3ccccc3O)c(Cl)cc2F)c1=O | 55.4 |
| CCCCOCCOc1ccc(-c2ccc3c(c2)C=C(C(=O)Nc2ccc(CN(C)C4CCOCC4)cc2)CCS3(=O)=O)cc1 | 194 to 196 |
| O=C1c2cccc(SCCC(O)O)c2C(=O)c2cccc(SCCC(O)O)c21 | 238 to 239 |
| CN1C(=O)CC[C@]2(C)c3ccc(-c4ccccc4F)cc3CC[C@@H]12 | 142 to 150 |
| CCCCc1nc2c(N)nc3cc(OCc4ccccc4)ccc3c2n1CCOc1ccccc1 | 188 to 189 |
| CC(C)(C)OC(=O)Nc1ccc(OC2CN(CC(c3ccccc3)c3ccccc3)C2)cc1 | 149 to 151 |
| Cc1nc(OCCCCn2cncn2)c([N+](=O)[O-])c(N2CCc3ccccc3CC2)n1 | 88 to 91 |
| CS(=O)(=O)CCCCC(c1cc(Cl)ccc1F)S(=O)(=O)c1ccc(Cl)cc1 (stereo not given) | 116 to 117 |
| O=S1(=O)NCN(C2CCCCC2)c2ccc(Cl)cc21 | 233 to 235 |
| COc1ccc(CC(=O)c2ccc(OC)nc2)cc1 | 101 to 102 |
| Cc1cc(-c2nnc3c4ccccc4c(OCc4ncn(C)n4)nn23)no1 | 249 to 251 |
| Cc1cc(N2CC=CCC2)nn2cnnc12 | 103 to 106 |
| Clc1cccc(-n2ccnc2)n1 | 71 to 73 |
| O=c1[nH]ncc2c(O)cccc12 | 351 to 355 |
| O=C(NCCO)C(O)C(Oc1ccccc1[N+](=O)[O-])c1ccccc1 (stereo not given) | 166 to 188 |
| C#CCN(c1cc(-n2nc3ccc(Cl)cn3c2=O)c(F)cc1C#N)S(=O)(=O)CC | 176 to 178 |

| SMILES | melting point [°C] |
| --- | --- |
| CCCNc1sc(C(N)=O)c2c1-c1c(cnn1C)CC2 | 207 to 208 |
| CCC(CC)CNc1cccc(-c2ccnc3c(C(=O)c4cccs4)cnn23)c1 | 192 to 194 |
| CCN(c1ccc(OC)cc1)c1cc(NC)nc(C)n1 | 116 to 118 |
| C[C@@H](NC(=O)c1cnc(-c2ccc(Cl)cc2)s1)[C@](O)(Cn1cncn1)c1ccc(F)cc1F | 194 to 195 |
| COC(=O)c1cccc(N)c1N | 62 to 63 |
| CN1CCN(c2nc(-c3ccccc3)nc3nc(-c4ccncc4)[nH]c23)CC1 | 333 to 337 |
| CCc1nc(C(=O)c2ccc(Cl)cc2Cl)c(C(C)O)n1C(CC)CC (stereo not given) | 125 to 126 |
| Nc1ncnc2c(C3OC(CO)C(O)C3O)[nH]nc12 (stereo not given) | 141 to 142 |
| Nc1cncnc1NCCN1CCC(Nc2nc3ccccc3n2Cc2ccc(F)cc2)CC1 | 208 |
| CCN(CC)c1ccc(C2(c3ccc(N(C)C)cc3)OC(=O)c3cc(N(C)C)ccc32)c(C)c1 (stereo not given) | 190 to 195 |
| OC(CCCl)COc1ccc(Cl)c(Cl)c1 (stereo not given) | 82 to 84 |
| CCOP(=O)(Cc1ccc(NC(=O)CCc2cnoc2-c2ccccc2)cc1)OCC | 139 to 140 |
| CCOC(=O)c1cn(CCCl)c2cc(Cl)c(F)cc2c1=O | 222 |
| COc1c(NC(=O)c2c(F)cc(F)cc2F)cccc1C(=O)Nc1c(Cl)cc(C(F)(C(F)(F)F)C(F)(F)C(F)(F)F)cc1Br (stereo not given) | 179 |
| COc1ccc(N2C(=O)[C@H](O)[C@@H]2CC2CCCCC2)cc1 | 152 to 155 |
| FC(F)(F)c1ccc(-c2cc(Oc3cccc4cnccc34)nnc2Oc2cccc3cnccc23)cc1 | 197 to 199 |
| CCCCNC(=O)C1CCCCC1(O)C(=O)c1ccc(OC)cc1 (stereo not given) | 94 to 95 |
| CC(C#Cc1ccc(Oc2c(F)cccc2F)o1)N(O)C(N)=O (stereo not given) | 161 |
| O=C1c2c(F)c(F)c(F)c(F)c2C(=O)N1c1c[nH]c(=O)[nH]c1=O | 350 to 355 |
| CCN1C(=O)C(=O)c2cc(S(=O)(=O)N(C)C)ccc21 | 165 to 167 |
| CCCCc1cc2c(=O)n3cc(C#N)ccc3nc2s1 | 216 to 217 |
| O=C(OCCN1CCN(c2cccc(C(F)(F)F)c2)CC1)c1sccc1Nc1ccnc2cc(Cl)ccc12 | 80 |
| Clc1cc(CC(Cl)Cl)cnc1Cl | 89 to 90 |
| COc1cc2c3c(c1OC)C=NCC3c1ccccc1CC2 (stereo not given) | 131 to 132 |
| Cc1ccc([N+](=O)[O-])c(C(=O)Nc2ccc(-n3nc(C(F)(F)F)cc3C(F)(F)F)cc2)c1 | 188 to 189 |

| SMILES | melting point [°C] |
| --- | --- |
| CCC(CC)(CO)Nc1nc(-c2ccc(C#N)cc2)cs1 | 118 to 120 |
| Fc1cccc(F)c1-c1cncn1-c1ccc(Cl)cc1 | 170 to 172 |
| COC(=O)c1ccc(N2CCCC2CO)cc1N (stereo not given) | 113 to 115 |
| Cc1ccccc1CC(=NC#N)NC(NC(=O)Cc1ccc2ncccc2c1)C(C)(C)C (stereo not given) | 172 to 173 |
| Nc1cc(Br)nc(Br)c1 | 184 to 186 |
| CN(C)CCNC(=O)c1ccc(Br)cc1 | 67 to 69 |
| COc1ccc(-c2csc(Nc3ncccn3)n2)cc1OC | 225 to 228 |
| CCOc1cc2c(cc1OC)C(c1ccc(-c3nnn(CC)n3)cc1)=N[C@H]1CCCC[C@@H]21 (racemic) | 167 to 170 |
| CC(Br)c1cccc2c(-c3ccccc3)onc12 (stereo not given) | 73 to 77 |
| CCOC(=O)c1c(C(C)(C)O)nc(CO)n1Cc1ccc(-c2ccccc2-c2nnn[nH]2)cc1 | 98 to 99 |
| CC1Oc2cc(C3=NNC(=O)CC3)ccc2NC1=O (stereo not given) | 294 to 295 |
| CC(=O)OCSc1ccc2c3c(cccc13)C(=O)N2 | 149 to 154 |
| CC1CC(O)=CC2=CCC3C4CCC(O)C4(C)CCC3C21C (stereo not given) | 111 to 112 |
| N#Cc1cnc2c(sc3ccc([N+](=O)[O-])cc32)c1Nc1ccc(Cl)cc1Cl | 210 to 213 |
| COc1ccc(NC(=N)c2cccnc2)cc1 | 137 to 139 |
| CC(O)c1ccc(NS(C)(=O)=O)c(Sc2ccc(Cl)cc2Cl)c1 (stereo not given) | 91 to 94 |
| CCOC(=O)C(CC(=O)c1ccc(Oc2ccc(Br)cc2)cc1)SC(C)=O (stereo not given) | 67 to 68.5 |
| Nc1ncc2c(=O)c(C(=O)ON3C(=O)CCC3=O)c[nH]c2n1 | > 300 |
| COc1cc(N2C(=O)c3ccccc3C2=O)c2nc(Cl)cc(C)c2c1Oc1cccc(C(F)(F)F)c1 | 225 to 227 |
| CN(c1ccccc1)c1nc(N2CCOCC2)nc(-n2ccnc2)n1 | 119 to 120 |
| Cc1cc(=O)[nH]nc1-c1ccc2c(c1)C(C)CC(=O)N2 (stereo not given) | > 300 |
| CC1(C)OC(=O)Nc2ccc(-c3cccc(-c4nccs4)c3)cc21 | 223 to 224 |
| Cc1ccc(S(=O)C2CC3C(=O)C(c4ccc(F)cc4)=CC2N3C)cc1 (mixture of isomers) | 186 |
| O=C(O)CCc1c([N+](=O)[O-])cc(O)c(O)c1[N+](=O)[O-] | 162 to 165 |
| CCCCCCCCCCCCCCOc1ccc(OCc2ccccc2)c(C(=O)OC)c1 | 43 to 46 |

| SMILES | melting point [°C] |
| --- | --- |
| O=C(Nc1ccc(Cl)nc1)N1CC2(c3ccc(Cl)cc3)COc3cc(Cl)ccc3C2=N1 (stereo not given) | > 250 |
| CC(C)(C)C(C)(C)Nc1nc(NC(C)(C)C(C)(C)C)nc(N2CCNCC2)n1 | 183 to 185 |
| O=Cc1c2c(cn1Cc1ccccc1)OCCO2 | 75 |
| COc1ccccc1-c1ccc2cnc(Nc3ccc(N4CCN(CC(N)=O)CC4)c(F)c3)nn12 | 186 |
| O=[N+]([O-])c1cc(C(F)(F)F)ccc1Sc1nc(-c2ccccc2)c(-c2ccccc2)[nH]1 | 234 to 236 |
| CC(C)(C)c1ncc(OCc2ccccc2)c(Cl)n1 | 51 |
| CCOC(=O)CC(C(=O)c1ccccc1)C(=O)c1ccccc1 | 81 to 83 |
| CNS(=O)(=O)c1ccsc1C(=O)OC | 115 to 122 |
| Cn1cnc2c(N(Cc3ccccc3)Cc3ccccc3)nc(Cl)nc21 | 144 to 146 |
| CC(=NOC(=O)N(C)C)C1=CCCN(C)C1 | 54 to 55 |
| CCCCCCCCCCCCCCCCOC1=C(OCCCCCCCCCCCCCCCC)c2nc3c(Br)sc(Br)c3nc21 | 71.5 |
| Cc1ccc(-c2ccc(Cl)c(OC3SCC(O)C(O)C3O)c2)cn1 (stereo not given) | 201 |
| COP(=S)(OC)Oc1cc(-c2ccccc2)sc1C#N | 95 |
| CC(=Cc1ccccc1)c1ccc2c(c1)C(C)(C)CCC2(C)C | 83 to 85 |
| Cn1c([N+](=O)[O-])cnc1-c1nc2ccccc2n1CCN1CCOCC1 | 237 |
| Fc1ccc2c(c1)C(=C1CCNCC1)c1ccccc1C=C2 | 161 |
| COc1cc2c(cc1OC)C1Cc3cc(OC)c(OC(=O)C=Cc4cc(OC)c(OC)c(OC)c4)cc3CN1CC2 (stereo not given) | 207 to 210 |
| CC(CNC(=O)OC(C)(C)C)C(=O)NC(CC(=O)OCc1ccccc1)C(N)=O (mixture of isomers) | 135 to 136 |
| CCOCc1nc2c(N)nc3c(c2n1NCCCNC(=O)C(C)C)CCCC3 | 163 to 165 |
| O=S(=O)(Nc1ccccc1)c1ccc(-c2cnn3c(O)ncnc23)cc1 | 274 to 277 |
| O=C(O)CCN1CCN(c2ccc(F)cc2)CC1 | 178 to 180 |
| CC1(C)Oc2ccc(Cl)cc2C12NC(=O)NC2=O (stereo not given) | 228 to 229 |
| Nc1nc(N)c2cc(CCc3ccc(C(=O)N[C@@H](CCC(=O)O)C(=O)O)cc3)cnc2n1 | > 250 |
| FC(F)(F)c1nc2ccnc(Cl)n2n1 | 47 to 48 |
| CC12CCC3c4cc(O)c(O)cc4CCC3C1CCC2O (stereo not given) | 181 to 183 |
